According to patent publication US20090221642A1, “MUSCARINIC RECEPTOR AGONISTS, COMPOSITIONS, METHODS OF TREATMENT THEREOF, AND PROCESSES FOR PREPARATION THEREOF-176” (AstraZeneca AB, priority 2008, published 2009):

molecular target: T1, cloned human M2 receptor (human Muscarinic receptor subtype 2) (Homo sapiens, UniProt P08172); assay: hM2 receptor GTPγS binding; format: biochemical; conditions: CHO cell membranes expressing hM2; [35S]GTPγS binding; read-out: hM2 EC50
T1 construct: purchased Perkin-Elmer RBHM2M; host or cells: Chinese hamster ovary cells (CHO) membranes
T1 sequence (P08172 1-466): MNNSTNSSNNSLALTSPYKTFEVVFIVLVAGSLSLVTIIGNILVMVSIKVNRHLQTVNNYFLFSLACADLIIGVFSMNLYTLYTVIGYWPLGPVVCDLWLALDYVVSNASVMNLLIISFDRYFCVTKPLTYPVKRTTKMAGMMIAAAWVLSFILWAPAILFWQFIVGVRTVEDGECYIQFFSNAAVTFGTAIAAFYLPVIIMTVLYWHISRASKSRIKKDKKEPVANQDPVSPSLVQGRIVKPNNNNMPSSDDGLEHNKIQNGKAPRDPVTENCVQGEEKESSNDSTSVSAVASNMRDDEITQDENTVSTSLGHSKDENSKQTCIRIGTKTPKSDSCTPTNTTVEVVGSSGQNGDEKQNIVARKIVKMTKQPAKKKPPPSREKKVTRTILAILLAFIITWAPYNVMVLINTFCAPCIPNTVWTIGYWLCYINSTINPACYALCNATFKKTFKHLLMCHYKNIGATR
Method: hM2 Receptor GTPγS Binding
Membranes produced from Chinese hamster ovary cells (CHO) expressing the cloned human M2 receptor (human Muscarinic receptor subtype 2, gene bank access NM_000739), are obtained from Perkin-Elmer (RBHM2M). The membranes are thawed at 37° C., passed 3 times through a 23-gauge blunt-end needle, diluted in the GTPγS binding buffer (50 mM Hepes, 20 mM NaOH, 100 mM NaCl, 1 mM EDTA, 5 mM MgCl2, pH 7.4, 100 μM DTT). The EC50, IC50 and Emax of the compounds of the invention are evaluated from 10-point dose-response curves (three fold concentration range) done in 60 μl in 384-well non-specific binding surface plate (Corning). Ten microliters from the dose-response curves plate (5× concentration) are transferred to another 384 well plate containing 25 μl of the following: 5 μg of hM2 membranes, 500 μg of Flashblue beads (Perkin-Elmer) and GDP 25 μM. An additional 15 μl containing 3.3× (60,000 dpm) of GTPγ^35S (0.4 nM final) are added to the wells resulting in a total well volume of 50 μl. Basal and maximal stimulated [^35S]GTPγS binding are determined in absence and presence of 30 μM final of acetylcholine agonist. The membranes/beads mix are pre-incubated for 15 minutes at room temperature with 25 μM GDP prior to distribution in plates (12.5 μM final). The reversal of acetylcholine-induced stimulation (2 μM final) of [^35S]GTPγS binding is used to assay the antagonist properties (IC50) of the compounds. The plates are incubated for 60 minutes at room temperature then centrifuged at 400 rpm for 5 minutes. The radioactivity (cpm) is counted in a Trilux (Perkin-Elmer).
Values of EC50, IC50 and Emax are obtained using sigmoidal fits of a non-linear curve-fitting program (XLfit version 4.2.2 Excel add-in version 4.2.2 build 18 math 1Q version 2.1.2 build 18) of percent stimulated [^35S]GTPγS binding vs. log(molar ligand). All pEC50 and plC50 values are reported as arithmetic means ±standard error of mean of ‘n’ independent experiments.

Compared with `Cc1ccc2[nH]c(=O)n(C3CCN(C4(C)CCN(C(=O)OC(C)C)C4)CC3)c2c1` (single isomer, unassigned) [Example 39, isopropyl 3-methyl-3-(4-(6-methyl-2-oxo-2,3-dihydro-1H-benzo[d]imidazol-1-yl)piperidin-1-yl)pyrrolidine-1-carboxylate], `COC(=O)N1CCC(C)(N2CCC(n3c(=O)[nH]c4ccc(C)cc43)CC2)C1` (single isomer, unassigned) [Example 45, methyl 3-methyl-3-(4-(6-methyl-2-oxo-2,3-dihydro-1H-benzo[d]imidazol-1-yl)piperidin-1-yl)pyrrolidine-1-carboxylate] is lower in EC50: over 12.8 µM for the first, 1.64 µM for the second. The second is the more potent here.

First: Cc1ccc2[nH]c(=O)n(C3CCN(C4(C)CCN(C(=O)OC(C)C)C4)CC3)c2c1 (single isomer, unassigned) [Example 40, isopropyl 3-methyl-3-(4-(6-methyl-2-oxo-2,3-dihydro-1H-benzo[d]imidazol-1-yl)piperidin-1-yl)pyrrolidine-1-carboxylate]
Second: COC(=O)N1CCC(C)(N2CCC(n3c(=O)[nH]c4ccc(C)cc43)CC2)C1 (single isomer, unassigned) [Example 47, methyl 3-methyl-3-(4-(6-methyl-2-oxo-2,3-dihydro-1H-benzo[d]imidazol-1-yl)piperidin-1-yl)pyrrolidine-1-carboxylate]
The EC50 of the first is 22-fold higher: 2.81 µM for the first, 0.127 µM for the second.

Going from `C#CCOC(=O)N1CCC(C)(N2CCC(n3c(=O)[nH]c4ccc(C)cc43)CC2)C1` (single isomer, unassigned) [Example 41, prop-2-ynyl 3-methyl-3-(4-(6-methyl-2-oxo-2,3-dihydro-1H-benzo[d]imidazol-1-yl)piperidin-1-yl)pyrrolidine-1-carboxylate] to `C#CCOC(=O)N1CCC(C)(N2CCC(n3c(=O)[nH]c4cc(C)ccc43)CC2)C1` (single isomer, unassigned) [Example 44, prop-2-ynyl 3-methyl-3-(4-(5-methyl-2-oxo-2,3-dihydro-1H-benzo[d]imidazol-1-yl)piperidin-1-yl)pyrrolidine-1-carboxylate], the EC50 falls from 2.21 µM to 0.026 µM (85-fold). The second is the more potent here.

First: C#CCOC(=O)N1CCC(C)(N2CCC(n3c(=O)[nH]c4ccc(C)cc43)CC2)C1 (single isomer, unassigned) [Example 43, prop-2-ynyl 3-methyl-3-(4-(6-methyl-2-oxo-2,3-dihydro-1H-benzo[d]imidazol-1-yl)piperidin-1-yl)pyrrolidine-1-carboxylate]
Second: CCOC(=O)N1CCC(C)(N2CCC(n3c(=O)[nH]c4ccc(F)cc43)CC2)C1 (single isomer, unassigned) [Example 49, ethyl 3-(4-(6-fluoro-2-oxo-2,3-dihydro-1H-benzo[d]imidazol-1-yl)piperidin-1-yl)-3-methylpyrrolidine-1-carboxylate]
The EC50 of the first is 42-fold lower: 0.109 µM for the first, 4.55 µM for the second. The first is the more potent here.

Compared with `COC(=O)N1CCC(C)(N2CCC(n3c(=O)[nH]c4cc(C)ccc43)CC2)C1` (single isomer, unassigned) [Example 48, methyl 3-methyl-3-(4-(5-methyl-2-oxo-2,3-dihydro-1H-benzo[d]imidazol-1-yl)piperidin-1-yl)pyrrolidine-1-carboxylate], `COC(=O)N1CCC(C)(N2CCC(n3c(=O)[nH]c4ccc(F)cc43)CC2)C1` (single isomer, unassigned) [Example 52, methyl 3-(4-(6-fluoro-2-oxo-2,3-dihydro-1H-benzo[d]imidazol-1-yl)piperidin-1-yl)-3-methylpyrrolidine-1-carboxylate] is 2.2-fold higher in EC50: 0.571 µM for the first, 1.24 µM for the second. The first is the more potent here.

Going from `CCOC(=O)N1CCC(C)(N2CCC(n3c(=O)[nH]c4ccc(F)cc43)CC2)C1` (single isomer, unassigned) [Example 50, ethyl 3-(4-(6-fluoro-2-oxo-2,3-dihydro-1H-benzo[d]imidazol-1-yl)piperidin-1-yl)-3-methylpyrrolidine-1-carboxylate] to `CC1(N2CCC(n3c(=O)[nH]c4ccc(F)cc43)CC2)CCN(C(=O)OCCF)C1` (single isomer, unassigned) [Example 53, 2-fluoroethyl 3-(4-(6-fluoro-2-oxo-2,3-dihydro-1H-benzo[d]imidazol-1-yl)piperidin-1-yl)-3-methylpyrrolidine-1-carboxylate], the EC50 rises from 0.498 µM to 1.62 µM (3.3-fold). The first is the more potent here.

`CCOC(=O)N1CCC(C)(N2CCC(n3c(=O)[nH]c4cc(F)c(C)cc43)CC2)C1` (single isomer, unassigned) [Example 55, ethyl 3-(4-(5-fluoro-6-methyl-2-oxo-2,3-dihydro-1H-benzo[d]imidazol-1-yl)piperidin-1-yl)-3-methylpyrrolidine-1-carboxylate] and `CCOC(=O)N1CCC(C)(N2CCC(n3c(=O)[nH]c4cc(F)c(F)cc43)CC2)C1` (single isomer, unassigned) [Example 57, ethyl 3-(4-(5,6-difluoro-2-oxo-2,3-dihydro-1H-benzo[d]imidazol-1-yl)piperidin-1-yl)-3-methylpyrrolidine-1-carboxylate] are within 1.5-fold of each other in EC50: 0.319 µM for the first, 0.428 µM for the second.

Compared with `CCOC(=O)N1CCC(C)(N2CCC(n3c(=O)[nH]c4cc(F)c(C)cc43)CC2)C1` (single isomer, unassigned) [Example 56, ethyl 3-(4-(5-fluoro-6-methyl-2-oxo-2,3-dihydro-1H-benzo[d]imidazol-1-yl)piperidin-1-yl)-3-methylpyrrolidine-1-carboxylate], `CCOC(=O)N1CCC(C)(N2CCC(n3c(=O)[nH]c4cc(F)c(F)cc43)CC2)C1` (single isomer, unassigned) [Example 58, ethyl 3-(4-(5,6-difluoro-2-oxo-2,3-dihydro-1H-benzo[d]imidazol-1-yl)piperidin-1-yl)-3-methylpyrrolidine-1-carboxylate] is 88-fold higher in EC50: 0.024 µM for the first, 2.1 µM for the second. The first is the more potent here.

Going from `COC(=O)N1CCC(C)(N2CCC(n3c(=O)[nH]c4cc(F)c(F)cc43)CC2)C1` (single isomer, unassigned) [Example 60, methyl 3-(4-(5,6-difluoro-2-oxo-2,3-dihydro-1H-benzo[d]imidazol-1-yl)piperidin-1-yl)-3-methylpyrrolidine-1-carboxylate] to `CC1(N2CCC(n3c(=O)[nH]c4cc(F)c(F)cc43)CC2)CCN(C(=O)OCCF)C1` (single isomer, unassigned) [Example 61, 2-fluoroethyl 3-(4-(5,6-difluoro-2-oxo-2,3-dihydro-1H-benzo[d]imidazol-1-yl)piperidin-1-yl)-3-methylpyrrolidine-1-carboxylate], the EC50 rises from 1.03 µM to 1.71 µM (1.7-fold).

Going from `COC(=O)N1CCC(C)(N2CCC(N3C(=O)Cc4ccc(C)cc43)CC2)C1` (single isomer, unassigned) [Example 67, methyl 3-methyl-3-(4-(6-methyl-2-oxoindolin-1-yl)piperidin-1-yl)pyrrolidine-1-carboxylate] to `CCOC(=O)N1CCC(C)(N2CCC(N3C(=O)Cc4ccc(C)cc43)CC2)C1` (single isomer, unassigned) [Example 69, ethyl 3-methyl-3-(4-(6-methyl-2-oxoindolin-1-yl)piperidin-1-yl)pyrrolidine-1-carboxylate], the EC50 falls from 4.65 µM to 1.86 µM (2.5-fold).

Going from `COC(=O)N1CCC(C)(N2CCC(N3C(=O)Cc4ccc(C)cc43)CC2)C1` (single isomer, unassigned) [Example 68, methyl 3-methyl-3-(4-(6-methyl-2-oxoindolin-1-yl)piperidin-1-yl)pyrrolidine-1-carboxylate] to `CCOC(=O)N1CCC(C)(N2CCC(N3C(=O)Cc4ccc(C)cc43)CC2)C1` (single isomer, unassigned) [Example 70, ethyl 3-methyl-3-(4-(6-methyl-2-oxoindolin-1-yl)piperidin-1-yl)pyrrolidine-1-carboxylate], the EC50 falls from 1.15 µM to 0.448 µM (2.6-fold). The second is the more potent here.

`CCOC(=O)N1CCC(C)(N2CCC(N3C(=O)Cc4ccccc43)CC2)C1` (single isomer, unassigned) [Example 72, ethyl 3-methyl-3-(4-(2-oxoindolin-1-yl)piperidin-1-yl)pyrrolidine-1-carboxylate] showed an EC50 of 0.95 µM.
Work on `CCOC(=O)N1CCC(C)(N2CCC(N3C(=O)Cc4ccccc43)CC2)C1` (single isomer, unassigned) [Example 73, ethyl 3-methyl-3-(4-(2-oxoindolin-1-yl)piperidin-1-yl)pyrrolidine-1-carboxylate] yielded an EC50 of 6.16 µM.
